For 34 molecules, TGI and GI50 results are on record in PubChem BioAssay (NCI).

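All cell lines were grown in 96-well plates and treated with compound for 48 hours. At the GI50, growth is halved. TGI denotes the concentration required for complete inhibition of growth.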 Where a SMILES comes first, the peptide text is derived from it. [ ]: non-standard residue; d: D form. The star is where a group is joined. NMeV = CN[C@H](C(=O)O)C(C)C; X29 = COc1ccc(CN*)c(OC)c1; Octanoyl = CCCCCCCC(=O)*; dNMeA = CN[C@H](C)C(=O)O

Among the test systems are HL-60(TB) leukemia; PC-3 prostate; SF-539 CNS.
Experiment in all cases: inhibition of tumour cell growth, NCI panel, 48 h

On to `CCC1(c2ccccc2)C(=O)N=C(c2ccccc2)N1CCc1ccccc1` (stereo not drawn), for which the TGI in the assay on HL-60(TB) leukemia, in the assay on PC-3 prostate and in the assay with SF-539 CNS was above 100 µM in each case.
`O=C1OCC2OC(=O)c3cc(O)c(O)c(O)c3-c3c(O)c(O)c(O)c4c3C(=O)OC(C2OC(=O)c2cc(O)c(O)c(O)c2-c2c1cc(O)c(O)c2O)C1OC(=O)c2c-4c(O)c(O)c(O)c2[C@@H]1C(O)C(O)C(O)C(O)CO` (stereo partly drawn): the TGI in the assay with HL-60(TB) leukemia was 50.8 µM; with PC-3 prostate, 42.7 µM.
Turning to `Cn1c(=O)c2[nH]c(CCNC(=O)c3ccccc3)nc2n(C)c1=O`, the TGI with PC-3 prostate is above 100 µM.
`CC(=O)C1C(=O)C(=O)N(c2cccc([N+](=O)[O-])c2)C1=O` (stereo not drawn): the TGI in the assay on HL-60(TB) leukemia, in the assay with PC-3 prostate and with SF-539 CNS was above 100 µM throughout.
Turning to `Cc1ccccc1-n1c(=O)c2ncn(C3CCCO3)c2n(-c2ccccc2C)c1=S` (stereo not drawn), the TGI with HL-60(TB) leukemia and with SF-539 CNS was above 100 µM each time.
Consider `CC(C)(C)c1cc2c(OC/C=C/c3ccccc3)c(c1)Cc1cc(C(C#N)(OC/C=C/c3ccccc3)OC/C=C/c3ccccc3)cc(c1OC/C=C\c1ccccc1)Cc1cc(C(C)(C)C)cc(c1OC/C=C/c1ccccc1)Cc1cc(C(C#N)(OC/C=C\c3ccccc3)OC/C=C/c3ccccc3)cc(c1OC/C=C\c1ccccc1)C2` (stereo not drawn), for which the TGI in the assay on HL-60(TB) leukemia, with PC-3 prostate and in the assay on SF-539 CNS was above 100 µM each time.
For `Cn1c(=O)c2c(nc3n2CC(=O)N3CCCCl)n(C)c1=O`, the TGI in the assay with HL-60(TB) leukemia and with PC-3 prostate was above 100 µM each time.
Regarding `C[n+]1ccc(/C2=C3\C=CC(=N3)/C(c3cc[n+](C)cc3)=c3/cc/c([nH]3)=C(\c3cc[n+](C)cc3)C3=N/C(=C(/c4cc[n+](C)cc4)C4C=CC2N4)C=C3)cc1`, the TGI in the assay on HL-60(TB) leukemia and in the assay on SF-539 CNS was above 100 µM each time.
With `CC(C)(C)OC(=O)N/N=C(/N)Cc1ccc(Cl)cc1`, the TGI in the assay with PC-3 prostate was above 100 µM.
Take `CC1CC(C)C(C#N)N(C)c2ccccc21` (stereo not drawn): the results for the TGI in the assay with HL-60(TB) leukemia, in the assay on PC-3 prostate and with SF-539 CNS were 64.9 µM, above 100 µM and above 100 µM, respectively.
For `CCOC(=O)C1C(c2ccc3c(c2)OCO3)c2c([nH][nH]c2=O)CC1(C)O` (stereo not drawn), the TGI with HL-60(TB) leukemia, in the assay with PC-3 prostate and in the assay with SF-539 CNS was above 100 µM in each case.
`CO/N=C(/C)c1ccc(NC(=O)CSc2nnc(-c3ccncc3)n2-c2ccccc2)cc1`: in the assay on HL-60(TB) leukemia, the GI50 was above 100 µM and the TGI is above 100 µM.
With `COc1cc(/C=C/c2nc(NC(=S)Nc3ccccc3)nnc2C)cc(OC)c1OC`, the TGI with HL-60(TB) leukemia is 34.1 µM; with PC-3 prostate, above 100 µM.
Turning to `COc1ccc(C(=O)/C=C/c2ccc(O)c(O)c2)c(OC)c1`, the TGI with HL-60(TB) leukemia turned out to be 2.53 µM; in the assay with PC-3 prostate, 26.4 µM; in the assay with SF-539 CNS, 7.55 µM.
Consider `CC1(/C=C/CCSc2ccccc2)CC(=O)C2CC1C2(C)C` (stereo not drawn), for which the TGI is above 100 µM with PC-3 prostate and 31.5 µM in the assay with SF-539 CNS.
Consider `COC(=O)[C@H](CCSC)NC(=O)N[C@H](C)c1ccccc1`, for which the TGI in the assay on HL-60(TB) leukemia, with PC-3 prostate and in the assay with SF-539 CNS was above 100 µM throughout.
With `O=C1C=CC2(C=C1)O[C@H](Cc1ccccc1)[C@@H](Cc1ccccc1)O2`, the figures for the TGI with HL-60(TB) leukemia, in the assay with PC-3 prostate and with SF-539 CNS were 6.52 µM, 3.34 µM and 1.02 µM, respectively.
The corresponding values for `N#Cc1sc2c(c1OC(=O)c1ccccc1)c(=O)n(-c1ccccc1)c(=S)n2-c1ccccc1` are 61.4 µM, 66.6 µM and 47.8 µM.
Regarding `NC(N)=NCCCC(NC(=O)c1cccc2c(=O)c3ccccc3[nH]c12)C(=O)O` (stereo not drawn), the TGI in the assay with HL-60(TB) leukemia and in the assay with PC-3 prostate was above 100 µM throughout.
Regarding `CCN1C(=O)c2cc(OC)c(OC)cc2C(=O)C12OC(=O)c1cc3c(cc12)OCO3` (stereo not drawn), the TGI in the assay on PC-3 prostate and in the assay on SF-539 CNS was above 100 µM throughout.
Consider `O=C(CCCN1CCC2(CC1)CC(c1ccccc1)OC2=O)c1ccc(F)cc1` (stereo not drawn), for which the TGI was above 100 µM in the assay with HL-60(TB) leukemia, above 100 µM with PC-3 prostate and 53.1 µM in the assay with SF-539 CNS.
As for `CCCCCCCC(=O)N[C@H](C(=O)N[C@H](C(=O)N(C)[C@H](C(=O)N1CCC[C@H]1C(=O)N(C)[C@H](C)C(=O)NCc1ccc(OC)cc1OC)C(C)C)C(C)C)C(C)C` (Octanoyl-VV[NMeV]P[dNMeA]-X29), the figures for the TGI in the assay with HL-60(TB) leukemia, in the assay with PC-3 prostate and in the assay on SF-539 CNS were 11.3 µM, 58.7 µM and above 60.4 µM, respectively.
Take `Oc1ccc(-c2cc(-c3cc(-c4ccc(O)cc4)no3)on2)cc1`: the TGI was above 100 µM in the assay on HL-60(TB) leukemia, above 100 µM with PC-3 prostate and above 49.7 µM in the assay on SF-539 CNS.
Take `CS(=O)(=O)OCC1CN(S(C)(=O)=O)c2cc(O)ccc21` (stereo not drawn): the TGI worked out at 6.59 µM in the assay with HL-60(TB) leukemia, 5.62 µM in the assay with PC-3 prostate and 7 µM in the assay on SF-539 CNS.
Regarding `O=c1[nH]cc(-c2c[nH]c3ccccc23)nc1-c1c[nH]c2ccccc12`, the values for the TGI in the assay with PC-3 prostate and in the assay with SF-539 CNS were 51.1 µM and 55.5 µM, respectively.
For the molecule `CCCCn1c(N)c(-c2nc3ccccc3o2)sc1=S`, the TGI in the assay on HL-60(TB) leukemia is above 100 µM; in the assay with PC-3 prostate, above 100 µM; in the assay on SF-539 CNS, 23.2 µM.
As for `Cc1cc(S(=O)(=O)Nc2nc3ccccc3nc2-c2cccc([N+](=O)[O-])c2)c(S)cc1Cl`, the TGI with HL-60(TB) leukemia is 44.4 µM; in the assay on PC-3 prostate it was 50.8 µM; in the assay with SF-539 CNS, 38.1 µM.
On to `CN(C)c1ccc(C(Cc2ccccc2)C2NC(=S)NC2=O)cc1` (stereo not drawn), for which the TGI in the assay with HL-60(TB) leukemia, in the assay on PC-3 prostate and in the assay with SF-539 CNS was above 100 µM each time.
`CN1c2ccccc2C(=O)NC12CCN(CCCC(=O)c1ccc(F)cc1)CC2`: the TGI in the assay with HL-60(TB) leukemia, with PC-3 prostate and with SF-539 CNS was above 100 µM each time.
Regarding `O=C(NC1CCCCC1NC(c1ccccc1)(c1ccccc1)c1ccccc1)C(=O)NC1CCCCC1NC(c1ccccc1)(c1ccccc1)c1ccccc1` (stereo not drawn), the TGI in the assay with HL-60(TB) leukemia, in the assay on PC-3 prostate and with SF-539 CNS was above 100 µM in each case.
For `C=CCC1(OCc2ccccc2)C(=O)C(=O)OC1C1COC(C)(C)O1` (stereo not drawn), the TGI in the assay on HL-60(TB) leukemia, in the assay with PC-3 prostate and with SF-539 CNS was above 100 µM each time.
With `CC1(C)C=Cc2c(cc(O)c3c(=O)c4cc(Cl)ccc4[nH]c23)O1`, the results for the TGI in the assay on HL-60(TB) leukemia, with PC-3 prostate and in the assay with SF-539 CNS were 6.6 µM, 7.12 µM and above 10 µM, respectively.
For the molecule `O=[N+]([O-])c1cccc2nnccc12`, the figures for the TGI in the assay with HL-60(TB) leukemia, in the assay with PC-3 prostate and in the assay with SF-539 CNS were 14.4 µM, above 100 µM and above 100 µM, respectively.
For the molecule `CCN(CC)CC1CCCCN1CC(=O)N1c2ccccc2C(=O)Nc2cccnc21` (stereo not drawn), the TGI in the assay with HL-60(TB) leukemia was 35 µM; in the assay with PC-3 prostate it was above 100 µM; in the assay with SF-539 CNS it was above 100 µM.
